These results are taken from PMC6934184, “Selective DNA-PKcs inhibition extends the therapeutic index of localized radiotherapy and chemotherapy” (The Journal of Clinical Investigation, 2019).

Structures are written as SMILES.

The assay addresses T1, FGFR4 (Homo sapiens, UniProt P22455).
T1 construct: purchased Thermo Fisher Scientific (Life Technologies) SelectScreen
Briefly: SelectScreen Z'LYTE. Type of assay: biochemical. The gist of the method:
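SelectScreen broad panel; activity (Z'LYTE, Adapta) plus binding formats. ATP: Km app for CSF1R Z'LYTE; 10 for CAMK1 Adapta. Readout = % per kinase.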

T1 sequence (P22455 22-802): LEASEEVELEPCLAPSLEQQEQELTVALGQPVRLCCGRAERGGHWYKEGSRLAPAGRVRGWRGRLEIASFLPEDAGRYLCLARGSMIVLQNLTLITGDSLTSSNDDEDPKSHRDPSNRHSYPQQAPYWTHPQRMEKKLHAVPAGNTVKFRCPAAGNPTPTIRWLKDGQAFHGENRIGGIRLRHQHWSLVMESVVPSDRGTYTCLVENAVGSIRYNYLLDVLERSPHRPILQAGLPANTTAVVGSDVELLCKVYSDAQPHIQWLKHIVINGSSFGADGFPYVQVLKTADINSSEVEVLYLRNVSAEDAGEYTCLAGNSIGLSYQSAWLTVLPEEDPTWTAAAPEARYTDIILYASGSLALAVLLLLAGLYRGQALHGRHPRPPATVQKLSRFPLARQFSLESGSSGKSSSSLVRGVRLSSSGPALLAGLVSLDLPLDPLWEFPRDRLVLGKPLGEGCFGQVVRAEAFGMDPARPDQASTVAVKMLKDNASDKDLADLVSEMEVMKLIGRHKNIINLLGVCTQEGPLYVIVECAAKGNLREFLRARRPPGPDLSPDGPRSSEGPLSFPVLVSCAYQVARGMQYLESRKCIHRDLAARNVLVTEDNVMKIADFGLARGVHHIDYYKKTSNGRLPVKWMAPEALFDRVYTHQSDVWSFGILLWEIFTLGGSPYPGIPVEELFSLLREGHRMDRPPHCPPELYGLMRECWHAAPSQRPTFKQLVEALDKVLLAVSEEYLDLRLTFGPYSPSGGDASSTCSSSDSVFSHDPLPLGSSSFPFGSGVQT

Broadly, the inhibition is the relative decrease from the control value, in per cent. `CN(C(=O)CN1CCOCC1)c1ccc2sc3c(-c4cccc5c(=O)cc(N6CC7CCC(C6)O7)oc45)cccc3c2c1` [NU5455]: the inhibition at 1 µM was -3.1%.
